The results in this text go back to patent US4372953A, “Tetrazole derivatives, and anti-ulcer composition containing the same” (Otsuka Pharmaceutical Company, Limited, priority 1980, dated 1983).

Like-named read-outs stand apart in the source and are kept apart here.

This assay relates to gastric juice secretion. Kind of assay: Shay rat pylorus ligation method (gastric juice secretion-inhibiting activity). The note with it: Rattus norvegicus, 4 h, 100 mg/kg, 4 hours after ligation. The format is in vivo, male Wistar rats. The procedure: The pharmacological activities of the compounds (1) were tested by a Shay rat pylorus ligation method (cf. H. Shay et al: Gastroenterol., Vol. 5, page 43, 1945) which is the most popular method for testing of gastric juice secretion-inhibiting activity. The test was carried out by using male Wistar rats, weighing about 170 g and fasting for 24 hours.
Test compounds were administered 30 minutes before the pylorus ligation in a dose of 100 mg/kg in subcutaneous route in case of test compounds 37, 38, 50, 51 and 52, in a dose of 200 mg/kg in subcutaneous route in case of test compounds 105 and 106 and in dose of 100 mg/kg in duodenal route in case of other test compounds, and the volume, total acidity and pepsin activity of the gastric juice were measured 4 hours after the ligation. As a control, a saline solution was administered instead of the test compound. The inhibitory ratio (%) of the test compounds were calculated when the inhibitory activities of the control were counted as zero (0).
In the table, the inhibitory ratio (%) was evaluated as follows: […]

The mark [1] stands for this setting: duodenal route, read-out: Inhibitory ratio, volume of gastric juice.
The mark [2] stands for this setting: sc, subcutaneous route, read-out: Inhibitory ratio, pepsin activity.
Setting [3] is: sc, subcutaneous route, read-out: Inhibitory ratio, total acidity.
The mark [4] stands for this setting: sc, subcutaneous route, read-out: Inhibitory ratio, volume of gastric juice.

Take `Cn1ccnc1SCCCSc1nnnn1C` [Test compound 11, 1-Methyl-5-[3-(1-methylimidazol-2-yl)thiopropyl]thio-1,2,3,4-tetrazole]: the inhibition in vivo at 100 mg/kg under setting [1] was more than 50%.

As for `Cn1nnnc1SCCCSc1ccccc1` [Test compound 10, 1-Methyl-5-(3-phenylthiopropyl)thio-1,2,3,4-tetrazole], the inhibition in vivo at 100 mg/kg under setting [1] lay in the range of 10 to 50%.

`Cn1nnnc1SCCCNC(=O)C1CCCCC1` [Test compound 81, 1-Methyl-5-(3-cyclohexylcarbonylaminopropyl)thio-1,2,3,4-tetrazole]: the inhibition in vivo at 100 mg/kg runs as follows: (duodenal route, read-out: Inhibitory ratio, pepsin activity) 10 to 50%; (duodenal route, read-out: Inhibitory ratio, total acidity) 10 to 50%; under setting [1], 10 to 50%.

`Cn1nnnc1SCCCCS(=O)(=O)c1nnnn1C` [Test compound 47, 4-(1-Methyl-1,2,3,4-tetrazol-5-yl)thiobutyl 1-methyl-1,2,3,4-tetrazol-5-yl sulfone]: the inhibition in vivo at 100 mg/kg under setting [1] is more than 50%.

Regarding `Cn1nnnc1SCCCSCc1ccccn1` [Test compound 23, 1-Methyl-5-[3-(2-pyridyl)methylthiopropyl]thio-1,2,3,4-tetrazole], the inhibition in vivo at 100 mg/kg under setting [1] lay in the range of 10 to 50%.

Consider `CCC(=O)CCCSc1nnnn1C` [Test compound 50, 1-Methyl-5-(3-propionylpropyl)thio-1,2,3,4-tetrazole], for which the inhibition in vivo at 100 mg/kg under setting [2] is more than 50%, the inhibition in vivo at 100 mg/kg under setting [3] was more than 50% and the inhibition in vivo at 100 mg/kg under setting [4] is more than 50%.

For `Cn1nnnc1SCCCCCSc1ccccn1` [Test compound 32, 1-Methyl-5-[5-(2-pyridyl)thiopentyl]thio-1,2,3,4-tetrazole], the inhibition in vivo at 100 mg/kg under setting [1] lay in the range of 10 to 50%.

Take `Cn1nnnc1SCCCCSc1ccccc1` [Test compound 28, 1-Methyl-5-(4-phenylthiobutyl)thio-1,2,3,4-tetrazole]: under setting [1], the inhibition in vivo at 100 mg/kg fell in the range of 10 to 50%.

Take `c1ccc(-n2nnnc2SCCCSc2nnnn2-c2ccccc2)cc1` [Test compound 38, 1-Phenyl-5-[3-(1-phenyl-1,2,3,4-tetrazol-5-yl)thiopropyl]thio-1,2,3,4-tetrazole]: the inhibition in vivo at 100 mg/kg was 10 to 50% under setting [2], 10 to 50% under setting [3] and 10 to 50% under setting [4].

As to `Cn1nnnc1SCCCCSc1nc2ccccc2c(=O)[nH]1` [Test compound 29, 1-Methyl-5-[4-(4-oxo-3,4-dihydroquinazolin-2-yl)thiobutyl]thio-1,2,3,4-tetrazole], the inhibition in vivo at 100 mg/kg under setting [1] fell in the range of 10 to 50%.

With `Cn1nnnc1SCCCSCc1ccco1` [Test compound 21, 1-Methyl-5-[3-(2-furyl)methylthiopropyl]thio-1,2,3,4-tetrazole], the inhibition in vivo at 100 mg/kg under setting [1] is more than 50%.

With `Cn1nnnc1SCCCS(=O)(=O)c1ccccn1` [Test compound 48, 3-(1-Methyl-1,2,3,4-tetrazol-5-yl)thiopropyl 2-pyridyl sulfone], under setting [1], the inhibition in vivo at 100 mg/kg was in the range of 10 to 50%.

Turning to `Cn1nnnc1SCCCSc1nnnn1C` [Test compound 37, 1-Methyl-5-[3-(1-methyl-1,2,3,4-tetrazol-5-yl)thiopropyl]thio-1,2,3,4-tetrazole], the inhibition in vivo at 100 mg/kg by setting is: under setting [2], more than 50%; under setting [3], more than 50%; under setting [4], more than 50%.

`Cn1nnnc1SCCCCC(=O)c1ccccc1` [Test compound 71, 1-Methyl-5-(4-benzoylbutyl)thio-1,2,3,4-tetrazole]: under setting [1], the inhibition in vivo at 100 mg/kg fell in the range of 10 to 50%.

On to `Cn1nnnc1SCCCSc1nc2ccccc2[nH]1` [Test compound 19, 1-Methyl-5-[3-(2-benzimidazolyl)thiopropyl]thio-1,2,3,4-tetrazole], for which the inhibition in vivo at 100 mg/kg under setting [1] fell in the range of 10 to 50%.

`COc1ccc(C(=O)CCCSc2nnnn2C)cc1` [Test compound 63, 1-Methyl-5-[3-(4-methoxybenzoyl)propyl]thio-1,2,3,4-tetrazole]: under setting [1], the inhibition in vivo at 100 mg/kg was in the range of 10 to 50%.

Consider `Cn1nnnc1SCCCSCc1ccccc1` [Test compound 22, 1-Methyl-5-(3-benzylthiopropyl)thio-1,2,3,4-tetrazole], for which the inhibition in vivo at 100 mg/kg under setting [1] was more than 50%.
